This passage reports EC50 results from PubChem BioAssay AID1599 (NINDS Approved Drug Screening Program, 2009).

One may read the EC50 as the concentration that produces a half-maximal response. A high value points to weaker potency.

The assay concerns C. elegans polyQ-huntingtin mechanosensory neurons, touch response. Put plainly: rescue of polyQ-huntingtin neuronal dysfunction in worms, whole organism, C. elegans mechanosensory neurons, N-terminal huntingtin (AID 1599).
For the compound `CNc1ccc2oc(C[C@@H]3OC4(CC[C@@H]3C)O[C@H](C(C)C(=O)c3ccc[nH]3)[C@H](C)C[C@H]4C)nc2c1C(=O)O` (stereo partly specified), the EC50 was 5.5 µM.

`CC1=C2C(=CO[C@H](C)[C@H]2C)C(=O)C(C(=O)O)=C1O` returned a half-maximal effective concentration (EC50) of 40 µM.

In turn, `CC(=O)OCC1=C(C(=O)O)N2C(=O)[C@@H](NC(=O)CCCC(N)C(=O)O)C2SC1` (stereo partly specified) displayed a concentration for a half-maximal effect (EC50) of 2 µM.

The compound `CCn1cc(C(=O)O)c(=O)c2cc3c(cc21)OCO3` displayed an EC50 of 2.3 µM. The EC50 values of the last two compounds are within 1.5-fold of each other.

Take `C[C@@H]1O[C@@H](O[C@H]2[C@H](Oc3cc(O)c4c(c3)O[C@H](c3ccc(O)cc3)CC4=O)O[C@H](CO)[C@@H](O)[C@@H]2O)[C@H](O)[C@H](O)[C@H]1O`: the EC50 was determined as 0.8 µM.

Take `Clc1ccc(COC(Cn2ccnc2)c2ccc(Cl)cc2Cl)cc1` (stereo unspecified): the EC50 is 3 µM.

`Clc1ccc(C(OCCN2CCCCC2)c2ccccc2)cc1` (stereo unspecified) yielded an EC50 of 28 µM.

Take `O=c1c2ccccc2[se]n1-c1ccccc1`: the EC50 is 0.2 µM.

The compound `C=Cc1c(C)c2cc3[nH]c(cc4nc(cc5nc(cc1[nH]2)C(C)=C5CCC(=O)O)C(CCC(=O)O)=C4C)c(C)c3C=C` had an EC50 of 0.005 µM. Compared with the last compound, the EC50 is about 40-fold lower.

Turning to `CC(C)NNC(=O)c1ccncc1`, the EC50 was 16 µM.

In turn, `Cc1cc(O)cc(C)c1Cl` showed an EC50 of 3.3 µM.

`CCCCNc1ccc(C(=O)OCCN(C)C)cc1`: the EC50 was found to be 5.8 µM.

Take `O=c1oc2ccccc2c(O)c1Cc1c(O)c2ccccc2oc1=O`: the EC50 turned out to be 4.2 µM.

`COc1ccc2cc(CCC(C)=O)ccc2c1` had an EC50 of 10 µM.

`CC1=NN(c2ccccc2)C(=O)C1` gave an EC50 of 0.016 µM.

`COc1ccc(Cl)cc1C(=O)NCCc1ccc(S(=O)(=O)NC(=O)NC2CCCCC2)cc1`: the EC50 is 2.3 µM.

As to `CC(C)(C)c1ccc(C(O)CCCN2CCC(C(O)(c3ccccc3)c3ccccc3)CC2)cc1` (stereo unspecified), the EC50 was 0.9 µM.

Regarding `OCCN1CCN(CCCN2c3ccccc3Sc3ccc(Cl)cc32)CC1`, the EC50 was found to be 1 µM. This EC50 and that of the compound before are within 1.5-fold of each other.

As to `C[C@@]1(C(=O)O)CC[C@]2(C)CC[C@]3(C)C4=CC=C5C=C(O)C(=O)C=C5[C@]4(C)CC[C@@]3(C)[C@@H]2C1`, the EC50 amounted to 0.4 µM.

In turn, `CN(C)CCCN1c2ccccc2CCc2ccc(Cl)cc21` gave an EC50 of 28 µM. Compared with the last compound, the EC50 is about 70-fold higher.

On to `O=C1c2ccc(O)c(O)c2C(=O)c2c(O)ccc(O)c21`, for which the EC50 turned out to be 2.8 µM.

`Cc1cc2cc3c(C)cc(=O)oc3c(C)c2o1`: the concentration for a half-maximal effect (EC50) is 3.8 µM.

As to `Oc1c(Cl)cc(Cl)c2cccnc12`, the EC50 is 3 µM.

For the compound `CN1CCN(C2=Nc3cc(Cl)ccc3Nc3ccccc32)CC1`, the EC50 amounted to 4.4 µM. The EC50 values of the last two compounds are within 1.5-fold of each other.

The compound `CNCCC=C1c2ccccc2CCc2ccccc21` came in with an EC50 of 1.8 µM.

On to `CN1CCC(=C2c3ccccc3Sc3ccccc32)CC1`, for which the EC50 is 24 µM.
